EP4223292A1, “PHARMACEUTICAL COMBINATIONS FOR TREATING CANCER” (Cellestia Biotech AG, priority 2022, dated 2023)

System: Human TNBC cell line HCC1187
Test: In vivo efficacy study, tumor growth delay of subcutaneous HCC1187 xenograft
Design: species or system NSG mice
Conditions: for TGD compared to control (group a): endpoint ten times the initial volume (1000%), difference of MTTE versus control
Description: Cultured cells were harvested, washed and counted. One million cells per mouse were subcutaneously transplanted into NSG mice. Animals were monitored for tumor growth. Once average tumor volume reached between 50-130 mm^3, animals were randomized for treatment with 6-(4-Tert-Butylphenoxy)Pyridin-3-Amine , Paclitaxel as single agent and 6-(4-Tert-Butylphenoxy)Pyridin-3-Amine + Paclitaxel combination. The treatment regimen was implemented as below: • a) Vehicle • b) 6-(4-Tert-Butylphenoxy)Pyridin-3-Amine single agent for 2 weeks • c) Paclitaxel single agent for 2 weeks and then monitor tumor growth without further treatment • d) 6-(4-Tert-Butylphenoxy)Pyridin-3-Amine + Paclitaxel combination for 2 weeks and then monitor tumor growth without further treatment • e) 6-(4-Tert-Butylphenoxy)Pyridin-3-Amine + Paclitaxel combination for 2 weeks and then continue treatment with 6-(4-Tert-Butylphenoxy)Pyridin-3-Amine alone as single agent and monitor tumor growth.
Tumor dimensions (L=length, W=width) were measured using a digital caliper. Tumor volume was calculated with the following formula: L^∗W^∗W/2. Tumor growth is followed as percentage of initial volume. Median Time To Endpoint (MTTE) was measured in days for an individual group to reach 1000% (10 times) the initial volume as end point. Tumor Growth Delay (TGD) was calculated as difference in days between MTTE of control and treatment groups.

Row | Compound | TGD compared to control (group a) (groups c, d: treatment for 2 weeks, then no treatment) [days] | TGD compared to control (group a) (group b: single agent for 2 weeks) [days] | efficacy (in words) (single agent alone, HCC1187 xenograft)
1 | CC(=O)O[C@H]1C(=O)[C@@]2(C)[C@H]([C@H](OC(=O)c3ccccc3)[C@]3(O)C[C@H](OC(=O)[C@H](O)[C@@H](NC(=O)c4ccccc4)c4ccccc4)C(C)=C1C3(C)C)[C@]1(OC(C)=O)CO[C@@H]1C[C@@H]2O [Paclitaxel, reference compound] | 21 | – | –
2 | CC(C)(C)c1ccc(Oc2ccc(N)cn2)cc1 [6-(4-Tert-Butylphenoxy)Pyridin-3-Amine] | – | 3 | only modest efficacy
